From patent US20230202992A1, “PHARMACEUTICAL COMPOSITION FOR PREVENTING OR TREATING SMALL-CELL LUNG CANCER ASSOCIATED WITH RON MUTANTS AND METHOD USING SAME” (WELLMARKER BIO CO., LTD., priority 2020, published 2023)

Tests used:
[1] = test system: H417 cell line (small cell lung cancer cell line of a mutation RONΔ155 type); assay: Cell killing efficacy in small cell lung cancer cell line (PI staining, FACS); type: cell-based; details: H417 cells (mRONΔ155), 1 μM, 72 hours, propidium iodide, FIG. 1
Description: The H417 cell line, which is a small cell lung cancer cell line of a mutation RONΔ155 type, was counted, and 2×10^5 cells were seeded in a 60 mm dish, respectively, and 24 hours later, treated with 1 μM of each of the compounds synthesized in Example 1 (WM-S1-030), Example 2, Example 3, Example 4, and Example 5 for 72 hours. As a positive control, a known RON inhibitor, BMS-777607 compound (1 μM), was used. BMS-777607 is N-{4-[(2-amino-3-chloro-4-pyridinyl)oxy]-3-fluorophenyl}-4-ethoxy-1-(4-fluorophenyl)-2-oxo-1,2-dihydro-3-pyridinecarboxamide, which is compound 1 disclosed in U.S. Pat. No. 8,536,200 B2. BMS-777607 is a well known RON inhibitor.
After 72 hours, all of the medium was transferred to a 15 mL conical tube and washed once with 1×PBS (phosphate buffered saline), and then the cells were harvested. Thereafter, the supernatant was removed by centrifugation at 1,000 rpm for 3 minutes, and propidium iodide (PI) was diluted in a FACS (Fluorescence-Activated Cell Sorting) buffer (PBS+2% FBS) at a ratio of 1:1000. The prepared buffer was added adequately depending on the number of cells, and then it was transferred to a FACS tube and reacted for 10 minutes. Thereafter, it was measured using a cytometer (FACS Analyzer).

[2] = test system: H417 cell line (mRONΔ155) transplanted tumor; assay: Tumor growth inhibition in H417 cell line transplanted animal model; type: in vivo, mouse; details: BALB/c-nude mice transplanted with H417, 30 mpk, oral, once a day for 3 weeks; FIG. 2
Description: It was confirmed whether tumor growth was inhibited by administering WM-S1-030 synthesized in Example 1 above at a dose of 30 mpk to a mouse model transplanted with the H417 cell line, which is a small cell lung cancer cell line of a mutation RONΔ155 type. Specifically, 5-week-old female BALB/c-nude mice were purchased and acclimatized for 1 week. Thereafter, H417 (5×10^6 cells/mouse), a small cell lung cancer cell line of a mutation RONΔ155 type, was diluted in PBS (phosphate buffered saline), and 100 μL was injected subcutaneously into the right dorsal side of the mouse. When the size of the tumor reached about 100 mm^3, WM-S1-030 was orally administered. At this time, the group orally administered with the vehicle was used as a negative control. The drug was administered once a day for 3 weeks, and the tumor size and body weight were measured twice a week. After the drug administration was completed, the mice were euthanized, the tumor was extracted, and the weight was measured.

[3] = test system: cleaved caspase-3; assay: Protein expression change in tumor tissue of H417 transplanted animal model, immunochemical staining; type: in vivo; details: H417 transplanted mouse model, 3 mpk, 10 mpk, 30 mpk, FIG. 3
Description: (§1) WM-S1-030 synthesized in Example 1 above was administered at each concentration (3 mpk, 10 mpk, 30 mpk) to a mouse model transplanted with the H417 cell line, which is a small cell lung cancer cell line of a mutation RONΔ155 type, and then the tumor was extracted, and the expression changes of the proteins were analyzed by immunochemical staining.
(§2) Specifically, paraffin slides were prepared using tissues isolated from the sacrificed mice. The tissue sections were deparaffinized and rehydrated, immersed in the target recovery buffer 1×(ScyTek Laboratories, Cat #CBB999) and heated for 15 minutes to perform an antigen recovery process. After the reaction, the tissue sections were washed in Tris buffered saline-0.05% Tween 20 (TBS-T)(T&I, BTT-9310) for 5 minutes, and then the reaction was performed with a non-specific antibody reaction blocking reagent (vector, SP-5035) for 1 hour.
(§3) The tissue sections were cultured at 4° C. overnight with mRON (Abcam, ab52927, 1:50), pTyr-mRON (Mybioscience, MBS462024, 1:100), cleaved caspase-3 (Asp175XR&D Systems, MAB835, 1:50) and then washed with TBS-T for 5 minutes, and then endogenous peroxidase activity was blocked using a peroxidase blocking reagent (Cellmarque, 925B-05). Thereafter, the tissue sections were washed with TBS-T for 5 minutes and then incubated with a rabbit secondary antibody (vector, PK-6101) at room temperature for 1 hour. […]

[4] = test system: pTyr-mRON; assay: as above; type: in vivo; details: H417 transplanted mouse model, 3 mpk, 10 mpk, 30 mpk, FIG. 3
Description: as §1, §2, §3

| SMILES | cell death (cell killing efficacy) [1] | tumor growth [2] | expression of cleaved caspase-3 [3] | expression of pTyr-mRON [4] |
| --- | --- | --- | --- | --- |
| CCOc1ccn(-c2ccc(F)cc2)c(=O)c1C(=O)Nc1ccc(Oc2ccnc(N)c2Cl)c(F)c1 [BMS-777607, N-{4-[(2-amino-3-chloro-4-pyridinyl)oxy]-3-fluorophenyl}-4-ethoxy-1-(4-fluorophenyl)-2-oxo-1,2-dihydro-3-pyridinecarboxamide] | low |  |  |  |
| CCOc1ccn(-c2ccc(F)cc2)c(=O)c1C(=O)Nc1ccc(Oc2ccnc3cc(-c4ccc(CN5CCOCC5)cn4)sc23)c(F)c1.Cl [Example 1, 4-ethoxy-N-[3-fluoro-4-({2-[5-(morpholinomethyl)pyridin-2-yl]thieno[3,2-b]pyridin-7-yl}oxy)phenyl]-1-(4-fluorophenyl)-2-oxo-1,2-dihydropyridine-3-carboxamide hydrochloride] |  | significantly inhibited | induced | decreased |
